Assay results as given in the supplement of paper PMC10307832.

What was measured:
Test in all cases: relative viability (nuclei count vs DMSO), 5 days (fraction); higher = more cells survive
Axitinib + AZD7762 = compound: CNC(=O)c1ccccc1Sc1ccc2c(/C=C/c3ccccn3)n[nH]c2c1 [Axitinib] + NC(=O)Nc1cc(-c2cccc(F)c2)sc1C(=O)N[C@H]1CCCNC1 [AZD7762] (partner 0.2 µM)
Summary of the method: (§1)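 Relative viability is defined as nuclei in treated wells over nuclei in vehicle wells. Duplicate plates were run and medians reported. Lung cancer cell lines in 1536-well plates were dosed by pin tool one day after seeding, with one drug or with a fixed anchor-drug dose plus five library-drug doses (not always all listed) in √10 steps, and nuclei were counted after 5 days.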

[1] = compound: CC1=CC=C(C=C1)C(=O)CN2C3=C(CCCC3)SC2=N [Pifithrin_alpha] + NC(=O)Nc1cc(-c2cccc(F)c2)sc1C(=O)N[C@H]1CCCNC1 [AZD7762] (partner 0.2 µM)
Summary of the method: as §1

Bemcentinib + Olaparib = compound: Nc1nc(Nc2ccc3c(c2)CC[C@@H](N2CCCC2)CC3)nn1-c1cc2c(nn1)-c1ccccc1CCC2 [Bemcentinib] + O=C(c1cc(Cc2n[nH]c(=O)c3ccccc23)ccc1F)N1CCN(C(=O)C2CC2)CC1 [Olaparib] (partner 8 µM)
Summary of the method: as §1

[2] = compound: CC1=CC=C(C=C1)C(=O)CN2C3=C(CCCC3)SC2=N [Pifithrin_alpha] + Cc1nc(Nc2ncc(C(=O)Nc3c(C)cccc3Cl)s2)cc(N2CCN(CCO)CC2)n1 [Dasatinib] (partner 0.075 µM)
Summary of the method: as §1

Cell Line | relative viability (Axitinib + AZD7762; first compound 0.005 µM) | relative viability (Axitinib + AZD7762; first compound 0.01581 µM) | relative viability (Axitinib + AZD7762; first compound 0.05 µM) | relative viability (Axitinib + AZD7762; first compound 0.1581 µM) | relative viability (Axitinib + AZD7762; first compound 0.5 µM) | relative viability ([1]; first compound 1 µM) | relative viability ([1]; first compound 3.162 µM) | relative viability ([1]; first compound 10 µM) | relative viability ([1]; first compound 100 µM) | relative viability (Bemcentinib + Olaparib; first compound 0.04 µM) | relative viability (Bemcentinib + Olaparib; first compound 0.1265 µM) | relative viability (Bemcentinib + Olaparib; first compound 0.4 µM) | relative viability (Bemcentinib + Olaparib; first compound 1.265 µM) | relative viability (Bemcentinib + Olaparib; first compound 4 µM) | relative viability ([2]; first compound 1 µM) | relative viability ([2]; first compound 3.162 µM) | relative viability ([2]; first compound 10 µM) | relative viability ([2]; first compound 100 µM) | relative viability ([1]; first compound 31.62 µM) | relative viability ([2]; first compound 31.62 µM)
NCI-H441 | 1.08 | 1.02 | 1.24 | 1.09 | 1.59 | 1.34 | 1.16 | 1.3 | 1.06 | 0.606 | 0.665 | 0.53 | 0.537 | 0.402 | 0.556 | 0.574 | 0.498 | 0.613 | – | –
NCI-H2087 | 1.37 | 1.42 | 1.47 | 1.25 | 1.43 | 1.4 | 1.32 | 1.28 | 1.26 | 0.638 | 0.65 | 0.616 | 0.614 | 0.644 | 0.982 | 0.869 | 0.83 | 0.862 | 1.03 | –
RERF-LC-KJ | 1 | 0.916 | 1.21 | 0.977 | 1.01 | 0.628 | 0.882 | 0.941 | 0.854 | 0.873 | 0.928 | 0.896 | 0.976 | 0.782 | 0.721 | 0.633 | 0.737 | 0.521 | 0.981 | 0.411
NCI-H1437 | 1.14 | 1.13 | 1.07 | 1.08 | 1.03 | 1.21 | 1.21 | 1.11 | 0.942 | 0.639 | 0.656 | 0.718 | 0.651 | 0.592 | 0.545 | 0.474 | 0.401 | 0.45 | 0.735 | 0.349
NCI-H1651 | 0.466 | 0.416 | 0.481 | 0.467 | 0.533 | 0.399 | 0.461 | 0.454 | 0.512 | 0.201 | 0.204 | 0.187 | 0.189 | 0.191 | 0.37 | 0.506 | 0.425 | 0.326 | 0.361 | 0.322
PC-14 | 0.306 | – | 0.346 | 0.382 | 0.413 | 0.217 | 0.194 | 0.251 | 0.263 | 0.279 | 0.433 | 0.235 | 0.225 | 0.187 | 0.207 | 0.166 | 0.134 | 0.0425 | 0.213 | 0.0654
NCI-H1792 | 0.72 | 0.629 | 0.777 | 0.755 | 1.03 | 0.656 | 0.508 | 0.453 | 0.494 | 0.496 | 0.353 | 0.538 | 0.391 | 0.498 | – | 1.17 | 0.641 | 0.639 | – | 0.533
NCI-H1666 | 0.836 | 0.816 | 0.879 | 0.865 | 0.84 | 0.767 | 0.717 | 0.677 | 0.491 | 0.742 | 0.887 | 0.731 | 0.713 | 0.713 | 0.808 | 0.81 | 0.682 | 0.542 | 0.581 | 0.588
LK-2 | 0.385 | 0.335 | 0.279 | 0.447 | 0.307 | 0.301 | 0.571 | 0.58 | 0.346 | 0.694 | 0.756 | 0.837 | 0.839 | 0.677 | 0.249 | 0.246 | 0.28 | 0.307 | – | –
PC-3 [JPC-3] | 0.835 | – | 0.933 | 0.765 | 0.781 | – | 0.678 | – | 0.446 | 1.08 | 1.15 | 1.17 | 1.11 | 1.06 | 0.971 | 0.928 | 0.671 | 0.917 | 0.464 | 0.933
LC-2-ad | 0.845 | 0.845 | 0.834 | 0.841 | 0.952 | 0.969 | 0.849 | 0.705 | 0.642 | 0.719 | 0.676 | 0.767 | 0.711 | 0.655 | – | 0.492 | 0.347 | 0.437 | 0.6 | –
ChaGo-K-1 | 0.912 | 0.862 | 0.908 | 0.868 | 0.886 | 0.905 | 0.947 | 0.872 | 0.866 | 0.403 | 0.371 | 0.467 | 0.438 | 0.423 | 0.641 | 0.594 | 0.614 | 0.497 | 0.683 | 0.509
NCI-H460 | 0.693 | 0.576 | 0.757 | 0.636 | 1.02 | 0.545 | 0.501 | 0.401 | 0.375 | 0.433 | 0.407 | 0.555 | 0.52 | 0.473 | 0.433 | 0.414 | 0.35 | 0.266 | – | 0.31
NCI-H1395 | 0.4 | 0.378 | 0.386 | 0.405 | 0.386 | – | 0.385 | 0.397 | 0.361 | – | 0.474 | 0.462 | 0.497 | 0.463 | 0.407 | 0.419 | 0.371 | 0.386 | – | 0.399
NCI-H727 | 0.488 | 0.554 | 0.629 | 0.738 | 0.584 | 0.478 | 0.57 | 0.571 | 0.48 | 0.678 | 0.618 | 0.813 | 0.52 | 0.747 | 0.357 | 0.421 | 0.394 | 0.346 | 0.51 | –
NCI-H838 | 0.929 | 0.97 | 0.963 | 0.926 | 1.06 | 0.875 | 0.909 | 0.832 | 0.884 | 0.795 | 0.933 | 0.915 | 0.864 | 0.774 | 0.259 | 0.28 | 0.245 | 0.229 | 0.744 | 0.234
NCI-H1755 | 0.509 | 0.435 | 0.454 | 0.524 | 0.47 | 0.433 | 0.498 | 0.46 | 0.434 | 0.92 | 0.868 | 0.929 | 0.951 | 0.935 | 0.39 | 0.622 | 0.391 | 0.401 | 0.41 | 0.362
EMC-BAC-2 | 1.07 | 1.1 | 1.06 | 1.1 | 1.11 | 1.09 | 1.09 | 0.954 | 1.04 | 0.491 | 0.511 | 0.488 | 0.468 | 0.482 | 0.311 | 0.319 | 0.298 | 0.311 | 0.82 | –
EKVX | 0.782 | 0.617 | 0.883 | 0.636 | 0.644 | 0.685 | 0.562 | 0.592 | 0.424 | 0.88 | 0.852 | 0.829 | 1.09 | 0.939 | – | 0.461 | 0.352 | 0.384 | 0.463 | 0.404
NCI-H647 | 0.449 | 0.32 | 0.583 | 0.36 | 0.539 | – | 0.368 | 0.307 | 0.287 | 0.479 | 0.666 | 0.698 | 0.602 | 0.624 | 0.218 | 0.17 | 0.141 | 0.153 | 0.361 | 0.153
NCI-H358 | 0.529 | 0.509 | 0.626 | 0.512 | 0.635 | 0.582 | 0.489 | 0.496 | 0.413 | 0.59 | 0.622 | 0.598 | 0.593 | 0.669 | 0.165 | 0.169 | 0.187 | 0.16 | 0.427 | 0.181
LU99A | 0.433 | 0.451 | 0.397 | 0.39 | 0.415 | 0.359 | 0.459 | 0.341 | 0.352 | 0.27 | 0.259 | 0.244 | 0.259 | 0.286 | 0.385 | 0.651 | 0.609 | 0.583 | – | 0.369
NCI-H1734 | 0.64 | 0.573 | 0.56 | 0.579 | 0.668 | 0.486 | 0.526 | 0.517 | 0.524 | 0.634 | 0.754 | 0.649 | 0.603 | 0.642 | 0.421 | 0.494 | 0.474 | 0.424 | 0.429 | 0.461
HARA | 0.315 | 0.447 | 0.369 | 0.348 | 0.313 | 0.3 | 0.329 | 0.219 | 0.209 | 0.778 | 1.17 | 1.14 | 0.929 | 0.76 | – | 0.256 | 0.257 | 0.268 | 0.23 | –
HCC-827 | 0.195 | 0.129 | 0.176 | 0.212 | 0.214 | 0.159 | 0.177 | 0.189 | 0.154 | 0.669 | 0.691 | 0.554 | 0.623 | 0.625 | 0.336 | 0.333 | 0.351 | 0.363 | 0.189 | 0.429
EPLC-272H | 0.245 | 0.165 | 0.269 | 0.234 | 0.197 | – | 0.233 | 0.212 | 0.215 | 0.753 | 1.02 | 0.975 | 0.833 | 0.761 | 0.236 | 0.344 | 0.324 | 0.379 | 0.196 | 0.279
LXF-289 | 1.16 | 1.06 | 1.11 | 1.06 | 1.18 | 1.16 | 1.12 | 1.23 | 1.13 | 1.13 | 1.16 | 1.13 | 1.06 | 1.04 | 0.204 | 0.201 | 0.172 | 0.145 | 1.12 | 0.167
NCI-H23 | 0.328 | 0.216 | 0.23 | 0.241 | 0.288 | 0.229 | 0.279 | 0.265 | 0.268 | 0.246 | 0.338 | 0.381 | 0.308 | 0.298 | 0.887 | 0.675 | 0.741 | 0.456 | 0.172 | –
